# Assay results reported in patent publication US4070492A, “Propranolol assay” (priority 1977, dated 1978).
# Entries after “also recorded” stand apart in the source; their conditions may differ.
# How the values were obtained:
# [1] = system: heart rate increase caused by isoproterenol; test: Inhibition by propranolol of heart rate increase caused by isoproterenol in anesthetized rats; format: in vivo; details: rat, 1 mg/kg i.v.
# Description: Increase in heart rate in response to isoproterenol 0.5 g/kg i.v. was compared beforeand at varying time after the administration of propranolol.
# [2] = Disposition of propranolol in rats: serum/blood levels by radioimmunoassay; details: rat; for disposition in blood: 1 mg/kg racemic propranolol i.v., in words; for half-life: blood, iv, 1 mg/kg
# [3] = system: antiserum against d,l-propranolol; test: Competition with 3H-propranolol for binding to antiserum against d,l-propranolol (radioimmunoassay specificity); design: species or system rabbit; details: for inhibition of 3H-propranolol binding: at 100 ng; for recognition by antiserum against d,l-propranolol: d- versus l-propranolol
# Method: (§1) New Zealand albino rabbits were immunized with propranolol-BSA immunogens once a week for 4 weeks and then once every 2 to 4 weeks. The immunogen was dissolved in phosphate-buffered saline (pH 7.4)
# (§2) and emulsified with an equal amount of complete Freund's adjuvant. One ml. of emulsion containing 500 μg of immunogen was injected into four foot pads and intramuscularly into both thighs. Bleedings were taken from the central ear artery 6 to 8 days after the third booster injection. Blood was allowed to clot overnight at 4° C. and centrifuged at 2,000 rpm for 15 mintues to separate serum.
# (§3) Antisera were diluted in a 2.5% solution of normal rabbit serum in 1:10 phosphate buffered saline. 0.4 ml. of this mixture was added to the assay tubes (10 × 75 mm). 10 μ1. of unknown or standard solutions were added to the tubes. 0.1 ml. of radioactive, d,l-propranolol solution containing 60 pg. (approximately 2,500 cpm) for antiserum against […] and 120 pg. (approximately 5,000 cpm) for antiserum against l-propranolol was subsequently added. The tubes were incubated overnight at 4° C. Antibody bound propranolol was separated by the addition of 0.5 ml. of saturated ammonium sulfate. The pellet was washed once with 0.8 ml. of 50% saturated ammonium sulfate, then dissolved in 0.5 ml. of water and transferred into a counting vial. The tube was washed twice with 3 ml. of Riafluor. Another portion of 6 ml. Riafluor was added to the vial to give a total volume of 12 ml., and the radioactivity was counted in a scintillation counter. The dilutions of the antisera used were 1:10,000 and 1:1000 respectively against d,l-propranolol and l-propranolol.
# (§4) The sensitivity of radioimmunoassay for d,l-propranolol and its l-isomer in phosphate-buffered saline and serum were determined.
# (§5) ID50 refers to the amount of the compound required to produce 50% inhibition of ^3 H-propranolol-antibody complex formation.
# [4] = system: antiserum against l-propranolol; test: Competition with 3H-propranolol for binding to antiserum against l-propranolol (radioimmunoassay specificity); design: species or system rabbit; details: for inhibition of 3H-propranolol binding: at 100 ng
# Method: as §1, §2, §3, §4, §5
# [5] = system: both antisera (against d,l-propranolol and l-propranolol); test: Competition with 3H-propranolol for binding, results stated once for both antisera; design: species or system rabbit; details: for recognition / cross-reaction / interference: in words; for inhibition of 3H-propranolol binding: at 100 ng
# Method: as §1, §2, §3, §4, §5
# [6] = rat, in vivo, iv, 1 mg/kg
# [7] = Disposition of propranolol in rats: heart levels by radioimmunoassay; details: rat, heart, iv, 1 mg/kg
# [8] = system: rat heart; test: as above; details: 1 mg/kg d,l-propranolol i.v.
# [9] = antiserum against l-propranolol
compound,measurement,setting,value
CC(C)NCC(O)COc1cccc2ccccc12 (racemic) [propranolol],time by which effect on heart rate disappeared,[1],≤ 90 min
same,suppression of increase in heart rate due to isoproterenol,[1]; first 30 minutes after administration,markedly suppressed
same,disposition in blood,[2],declines rapidly in the blood following the injection
"Oc1ccc(O)c2ccccc12 [1,4-naphthalene-diol]",inhibition of 3H-propranolol binding,"[3]; anti-d,l-propranolol antiserum",no inhibition
same,inhibition of 3H-propranolol binding,[4]; anti-l-propranolol antiserum,17%
same,concentration needed for interference with the assay,[5]; both antisera,"at least 1,000 times greater"
Oc1cccc2ccccc12 [1-naphthol],inhibition of 3H-propranolol binding,"[3]; anti-d,l-propranolol antiserum",25%
same,inhibition of 3H-propranolol binding,[4]; anti-l-propranolol antiserum,45%
same,concentration needed for interference with the assay,[5]; both antisera,"at least 1,000 times greater"
O=C(O)COc1cccc2ccccc12 [1-naphthoxy acetic acid],inhibition of 3H-propranolol binding,"[3]; anti-d,l-propranolol antiserum",10%
same,inhibition of 3H-propranolol binding,[4]; anti-l-propranolol antiserum,25%
same,concentration needed for interference with the assay,[5]; both antisera,"at least 1,000 times greater"
CC(C)NCC(O)COc1ccc(O)c2ccccc12 (stereo not drawn) [4-hydroxy-propranolol],"concentration needed for recognition by the d,l-antibody","[3]; antiserum against d,l-propranolol",≥ 70 times greater
same,concentration needed for recognition by the l-antibody,[4]; [9],≥ 35 times greater
CC(C)NC[C@@H](O)COc1cccc2ccccc12 [d-propranolol],ID50 and 95% confidence limits,"[3]; anti-d,l-propranolol antiserum, amount for 50% inhibition of 3H-propranolol-antibody complex formation, 95% confidence limits in parentheses",314 pg
same,"recognition by antiserum against d,l-propranolol",[3],to the same degree
same,amount of l-form as which 100 pg of the d isomer is recognized by the l-antibody,[4]; 100 pg of d isomer,7 pg
same,ID50 and 95% confidence limits,"[4]; anti-l-propranolol antiserum, amount for 50% inhibition of 3H-propranolol-antibody complex formation, 95% confidence limits in parentheses",1656 pg
same,ID50 relative to that for l-propranolol,[4]; [9],14 times
same,initial blood level relative to l-propranolol,[6],three times higher
same,half-life,[2],23.8 min
same,disposition in blood,[2],remains in the blood and is metabolized rapidly
CC(C)NCC(O)c1ccc(Cl)c(Cl)c1 (stereo not drawn) [dichloroisoproterenol],inhibition of 3H-propranolol binding,"[3]; anti-d,l-propranolol antiserum",13%
same,inhibition of 3H-propranolol binding,[4]; anti-l-propranolol antiserum,no inhibition
same,recognition / cross-reaction / interference,[5]; both antisera,not significant recognized by either antisera
NCCc1ccc(O)c(O)c1 [dopamine],inhibition of 3H-propranolol binding,[5],no inhibition
CNCC(O)c1ccc(O)c(O)c1 (stereo not drawn) [epinephrine],inhibition of 3H-propranolol binding,[5],no inhibition
CC(C)N [isopropylamine],inhibition of 3H-propranolol binding,[5],no inhibition
same,concentration needed for interference with the assay,[5]; both antisera,"at least 1,000 times greater"
CC(C)NCC(O)c1ccc(O)c(O)c1 (stereo not drawn) [isoproterenol],inhibition of 3H-propranolol binding,[5],no inhibition
same,recognition / cross-reaction / interference,[5]; both antisera,no cross-reaction
CC(C)NC[C@H](O)COc1cccc2ccccc12 [l-propranolol],"recognition by antiserum against d,l-propranolol",[3],to the same degree
same,selectivity of antiserum against l-propranolol,[4]; l-propranolol versus d-isomer,able to discriminate the l-propranolol selectively; also recorded: more selectively than the d-isomer
same,half-life,[7],62 min
same,decline in heart compared with blood,[8]; after half an hour,almost parallel to that found in the blood
same,heart uptake / presence in heart,"[8]; in words, 1 mg/kg",rapid accumulation of l-propranolol by the heart; also recorded: stereospecific uptake of l-propranolol by the rat heart; also recorded: only l-propranolol could be found in the heart
same,half-life,[2],52 min
same,half-life relative to d-isomer,"[2]; 1 mg/kg d,l-propranolol i.v.",almost twice that of the d-isomer
NCC(O)c1ccc(O)c(O)c1 (stereo not drawn) [norepinephrine],inhibition of 3H-propranolol binding,[5],no inhibition
CC(C)NCC(O)c1ccc2ccccc2c1 (stereo not drawn) [pronethalol],inhibition of 3H-propranolol binding,"[3]; anti-d,l-propranolol antiserum",45%
same,recognition / cross-reaction / interference,[5]; both antisera,not significant recognized by either antisera
"OCC(O)COc1cccc2ccccc12 (stereo not drawn) [propranolol glycol, 1-(1-naphthoxy)-2,3-propylene glycol]","ID50 relative to values for l-propranolol and d,l-propranolol",[5]; both antisera,9-14 times
